Measurements as given in patent US10710978B2, “STK4 inhibitors for treatment of hematologic malignancies” (Dana-Farber Cancer Institute, Inc., priority 2015, dated 2020).
Like-named read-outs stand apart in the source and are kept apart here.

Assays:
Experiment in all cases: KiNativ assay
Format in all cases: binding
[1] = biological target: CK1a (Homo sapiens (Human), UniProt P48729); conditions: H929 live cell
Protocol: (§1) Biochemical IC50s of the compounds of the present disclosure against various kinases were measured in a KiNativ assay. Compounds were screened in duplicate at 10 μM in H929 live cell. IC50 was measured via Mass spectroscopy (MS).

[2] = biological target: AKT1 (Homo sapiens (Human), UniProt P31749); conditions: H929 live cell
Protocol: as §1

[3] = biological target: RSK1 domain1 (Homo sapiens (Human), UniProt Q15418); conditions: H929 live cell
Protocol: as §1

[4] = biological target: RSK2 domain2 (Homo sapiens (Human), UniProt P51812); conditions: H929 live cell
Sequence of RSK2 domain2 (P51812 whole entry, the tested form may be a part): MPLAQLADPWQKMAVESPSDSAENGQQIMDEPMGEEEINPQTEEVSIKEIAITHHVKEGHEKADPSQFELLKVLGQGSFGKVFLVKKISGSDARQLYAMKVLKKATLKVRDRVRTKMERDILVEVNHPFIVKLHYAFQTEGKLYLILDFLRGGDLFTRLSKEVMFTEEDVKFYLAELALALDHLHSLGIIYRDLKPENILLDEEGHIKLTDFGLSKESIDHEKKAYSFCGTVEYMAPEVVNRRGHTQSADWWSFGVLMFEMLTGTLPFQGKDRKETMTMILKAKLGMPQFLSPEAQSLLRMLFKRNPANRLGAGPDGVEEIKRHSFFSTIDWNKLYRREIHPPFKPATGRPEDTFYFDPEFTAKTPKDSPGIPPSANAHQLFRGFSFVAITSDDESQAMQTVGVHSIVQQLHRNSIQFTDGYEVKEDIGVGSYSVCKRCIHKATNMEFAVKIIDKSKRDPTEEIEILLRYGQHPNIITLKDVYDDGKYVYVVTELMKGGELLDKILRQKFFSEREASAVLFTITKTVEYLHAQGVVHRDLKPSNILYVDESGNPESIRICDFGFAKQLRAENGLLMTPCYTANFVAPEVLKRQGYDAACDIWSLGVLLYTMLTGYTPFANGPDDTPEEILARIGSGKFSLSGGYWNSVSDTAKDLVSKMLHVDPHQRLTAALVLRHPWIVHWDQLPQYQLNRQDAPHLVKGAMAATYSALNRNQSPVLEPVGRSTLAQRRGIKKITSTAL
Protocol: as §1

[5] = biological target: PIP5K3 (Homo sapiens (Human), UniProt Q9Y2I7); conditions: H929 live cell
Protocol: as §1

[6] = biological target: TBK1 (Homo sapiens (Human), UniProt Q9UHD2); conditions: H929 live cell
Protocol: as §1

[7] = biological target: p38a (Homo sapiens (Human), UniProt Q16539); conditions: H929 live cell, range class, read-out: % inhibition
How it was run: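 Mass spectrometry read-out of a KiNativ profile gave IC50 values; compounds were screened at 10 μM in duplicate in live H929 cells.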

[8] = tested on: MAPKAPK2, MAPKAPK3; conditions: H929 live cell; for % inhibition: 10 μM, range class
Protocol: as §1

[9] = biological target: TYK2 domain2 (Homo sapiens (Human), UniProt P29597); conditions: H929 live cell
Protocol: as §1

[10] = biological target: PLK1 (Homo sapiens (Human), UniProt P53350); conditions: H929 live cell
Protocol: as §1

[11] = biological target: STLK6 (Homo sapiens (Human), UniProt Q9C0K7); conditions: H929 live cell
Protocol: as §1

[12] = biological target: MAP3K4 (Homo sapiens (Human), UniProt Q9Y6R4); conditions: H929 live cell
Protocol: as §1

[13] = biological target: Erk2 (Homo sapiens (Human), UniProt P28482); conditions: H929 live cell
Protocol: as §1

[14] = biological target: CSK (Homo sapiens (Human), UniProt P41240); conditions: H929 live cell
Sequence of CSK (P41240 whole entry): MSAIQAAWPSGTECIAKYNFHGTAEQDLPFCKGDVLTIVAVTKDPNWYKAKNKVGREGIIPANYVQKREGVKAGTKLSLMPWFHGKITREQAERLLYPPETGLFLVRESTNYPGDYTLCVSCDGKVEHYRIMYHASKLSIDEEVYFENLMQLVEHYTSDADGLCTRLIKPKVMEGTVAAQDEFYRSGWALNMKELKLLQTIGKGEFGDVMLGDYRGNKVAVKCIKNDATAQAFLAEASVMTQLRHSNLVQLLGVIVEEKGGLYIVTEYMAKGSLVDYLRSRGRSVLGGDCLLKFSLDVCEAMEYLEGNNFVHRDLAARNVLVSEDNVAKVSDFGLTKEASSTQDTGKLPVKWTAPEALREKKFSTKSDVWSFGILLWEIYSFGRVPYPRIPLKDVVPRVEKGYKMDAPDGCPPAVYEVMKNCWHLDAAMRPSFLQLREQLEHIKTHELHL
Protocol: as §1

[15] = biological target: PKN1 (Homo sapiens (Human), UniProt Q16512); conditions: H929 live cell
Protocol: as §1

[16] = biological target: CK1g2 (Homo sapiens (Human), UniProt P78368); conditions: H929 live cell
Protocol: as §1

[17] = tested on: AMPKa1, AMPKa2; conditions: H929 live cell; for % inhibition: 10 μM, range class
Protocol: as §1

[18] = tested on: KSR1, KSR2; conditions: H929 live cell; for % inhibition: 10 μM, range class
Protocol: as §1

[19] = biological target: LOK (Homo sapiens (Human), UniProt O94804); conditions: H929 live cell
Protocol: as §1

[20] = biological target: MAP2K3 (Homo sapiens (Human), UniProt P46734); conditions: H929 live cell
Protocol: as §1

[21] = biological target: JAK3 domain2 (Homo sapiens (Human), UniProt P52333); conditions: H929 live cell
Protocol: as §1

[22] = biological target: SMG1 (Homo sapiens (Human), UniProt Q96Q15); conditions: H929 live cell
Sequence of SMG1 (Q96Q15 whole entry): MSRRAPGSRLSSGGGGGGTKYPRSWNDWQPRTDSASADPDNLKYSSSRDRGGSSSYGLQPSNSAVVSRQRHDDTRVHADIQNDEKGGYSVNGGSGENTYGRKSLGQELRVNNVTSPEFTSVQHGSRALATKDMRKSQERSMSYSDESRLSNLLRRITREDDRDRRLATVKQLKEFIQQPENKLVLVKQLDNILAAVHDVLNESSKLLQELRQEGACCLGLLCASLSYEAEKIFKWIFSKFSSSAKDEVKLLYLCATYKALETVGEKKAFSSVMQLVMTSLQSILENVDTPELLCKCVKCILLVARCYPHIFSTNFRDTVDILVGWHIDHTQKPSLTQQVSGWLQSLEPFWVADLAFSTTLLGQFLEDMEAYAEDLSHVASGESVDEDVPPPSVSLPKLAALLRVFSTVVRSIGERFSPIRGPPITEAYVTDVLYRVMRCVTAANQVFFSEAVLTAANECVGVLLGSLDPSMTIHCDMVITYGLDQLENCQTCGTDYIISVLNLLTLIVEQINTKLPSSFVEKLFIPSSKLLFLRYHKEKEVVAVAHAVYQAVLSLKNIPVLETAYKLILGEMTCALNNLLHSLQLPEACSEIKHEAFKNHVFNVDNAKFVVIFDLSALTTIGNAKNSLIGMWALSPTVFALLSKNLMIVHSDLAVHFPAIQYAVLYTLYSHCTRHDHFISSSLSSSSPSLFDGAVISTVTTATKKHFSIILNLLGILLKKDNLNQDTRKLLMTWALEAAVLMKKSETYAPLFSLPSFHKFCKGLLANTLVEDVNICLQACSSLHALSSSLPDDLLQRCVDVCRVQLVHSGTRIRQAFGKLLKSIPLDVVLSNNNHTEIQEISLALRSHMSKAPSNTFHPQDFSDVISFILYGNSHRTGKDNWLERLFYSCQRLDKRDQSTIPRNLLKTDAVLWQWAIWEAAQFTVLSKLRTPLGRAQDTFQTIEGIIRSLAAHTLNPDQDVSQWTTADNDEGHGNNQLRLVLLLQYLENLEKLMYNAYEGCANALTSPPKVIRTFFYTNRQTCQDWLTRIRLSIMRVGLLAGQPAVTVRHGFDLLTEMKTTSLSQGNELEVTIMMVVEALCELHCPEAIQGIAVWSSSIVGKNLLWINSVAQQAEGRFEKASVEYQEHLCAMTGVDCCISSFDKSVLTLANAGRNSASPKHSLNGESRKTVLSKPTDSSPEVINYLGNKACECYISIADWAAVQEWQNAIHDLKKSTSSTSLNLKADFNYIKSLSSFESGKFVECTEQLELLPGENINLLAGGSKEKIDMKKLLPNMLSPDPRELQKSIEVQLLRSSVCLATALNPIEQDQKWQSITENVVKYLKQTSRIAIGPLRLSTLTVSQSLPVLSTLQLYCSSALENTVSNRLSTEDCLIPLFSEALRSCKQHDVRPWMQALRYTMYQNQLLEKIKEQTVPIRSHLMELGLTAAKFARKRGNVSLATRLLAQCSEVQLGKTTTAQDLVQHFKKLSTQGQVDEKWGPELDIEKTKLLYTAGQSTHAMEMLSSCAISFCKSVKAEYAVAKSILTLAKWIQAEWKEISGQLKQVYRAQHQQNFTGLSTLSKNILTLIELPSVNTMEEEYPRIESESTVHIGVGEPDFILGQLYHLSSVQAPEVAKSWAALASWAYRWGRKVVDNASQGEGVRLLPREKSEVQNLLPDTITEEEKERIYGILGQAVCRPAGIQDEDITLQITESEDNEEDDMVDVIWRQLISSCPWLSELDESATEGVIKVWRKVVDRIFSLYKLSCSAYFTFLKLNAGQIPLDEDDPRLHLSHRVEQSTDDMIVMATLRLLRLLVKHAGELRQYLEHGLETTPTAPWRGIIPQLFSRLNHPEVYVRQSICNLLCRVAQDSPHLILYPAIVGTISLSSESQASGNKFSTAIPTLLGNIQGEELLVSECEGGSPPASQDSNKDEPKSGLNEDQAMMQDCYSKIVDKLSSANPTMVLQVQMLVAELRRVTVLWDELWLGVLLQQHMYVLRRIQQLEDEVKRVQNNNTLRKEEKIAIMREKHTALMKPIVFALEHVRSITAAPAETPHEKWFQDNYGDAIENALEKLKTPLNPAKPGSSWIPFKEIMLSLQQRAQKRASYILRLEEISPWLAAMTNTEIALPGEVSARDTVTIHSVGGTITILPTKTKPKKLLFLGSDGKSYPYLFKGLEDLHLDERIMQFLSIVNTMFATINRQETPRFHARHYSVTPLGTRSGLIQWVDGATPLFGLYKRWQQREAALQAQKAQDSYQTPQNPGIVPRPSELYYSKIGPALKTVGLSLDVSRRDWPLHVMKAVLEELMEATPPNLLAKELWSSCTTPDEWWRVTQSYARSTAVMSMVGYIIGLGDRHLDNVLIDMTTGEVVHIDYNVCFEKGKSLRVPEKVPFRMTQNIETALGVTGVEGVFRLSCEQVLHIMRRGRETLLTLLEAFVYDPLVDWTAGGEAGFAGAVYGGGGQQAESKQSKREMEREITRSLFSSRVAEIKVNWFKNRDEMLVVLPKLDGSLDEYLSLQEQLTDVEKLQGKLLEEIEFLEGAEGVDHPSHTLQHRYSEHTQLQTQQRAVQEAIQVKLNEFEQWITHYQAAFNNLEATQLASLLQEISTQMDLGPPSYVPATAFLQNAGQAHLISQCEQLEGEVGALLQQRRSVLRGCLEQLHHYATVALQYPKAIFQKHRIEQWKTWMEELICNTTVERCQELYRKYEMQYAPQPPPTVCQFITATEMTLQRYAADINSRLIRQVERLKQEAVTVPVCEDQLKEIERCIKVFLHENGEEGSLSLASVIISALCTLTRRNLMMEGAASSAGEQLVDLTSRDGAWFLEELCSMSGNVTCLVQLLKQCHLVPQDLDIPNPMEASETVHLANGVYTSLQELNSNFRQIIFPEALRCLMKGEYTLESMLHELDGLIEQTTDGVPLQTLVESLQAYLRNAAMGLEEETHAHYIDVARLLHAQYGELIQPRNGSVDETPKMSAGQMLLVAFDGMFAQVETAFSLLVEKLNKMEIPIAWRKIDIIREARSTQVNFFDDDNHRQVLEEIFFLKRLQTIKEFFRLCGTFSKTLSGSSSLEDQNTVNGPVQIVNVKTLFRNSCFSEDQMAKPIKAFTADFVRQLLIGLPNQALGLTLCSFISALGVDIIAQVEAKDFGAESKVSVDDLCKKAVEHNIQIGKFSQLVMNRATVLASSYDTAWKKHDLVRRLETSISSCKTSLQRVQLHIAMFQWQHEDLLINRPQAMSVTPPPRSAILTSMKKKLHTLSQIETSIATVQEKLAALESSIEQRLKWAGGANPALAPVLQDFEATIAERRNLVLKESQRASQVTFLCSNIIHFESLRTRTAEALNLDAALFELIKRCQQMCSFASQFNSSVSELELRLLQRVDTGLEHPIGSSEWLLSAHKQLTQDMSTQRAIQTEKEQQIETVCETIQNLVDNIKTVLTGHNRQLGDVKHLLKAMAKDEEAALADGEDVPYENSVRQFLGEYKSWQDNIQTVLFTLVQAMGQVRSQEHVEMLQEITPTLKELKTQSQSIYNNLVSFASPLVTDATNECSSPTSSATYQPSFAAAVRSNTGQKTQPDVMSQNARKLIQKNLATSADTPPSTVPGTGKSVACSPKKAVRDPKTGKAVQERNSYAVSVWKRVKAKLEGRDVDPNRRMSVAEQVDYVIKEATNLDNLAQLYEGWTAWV
Protocol: as §1

[23] = tested on: PI4KA, PI4KAP2; conditions: H929 live cell; for % inhibition: 10 μM, range class
Protocol: as §1

[24] = biological target: PKD2 (Homo sapiens (Human), UniProt Q9BZL6); conditions: H929 live cell
Protocol: as §1

[25] = range class, read-out: % inhibition

Nc1ncc(-c2ccc(NS(=O)(=O)C3CC3)cc2F)cc1-c1ccc2c(c1)CCNC2=O [Compound I-51, N-(4-(6-amino-5-(1-oxo-1,2,3,4-tetrahydroisoquinolin-6-yl)pyridin-3-yl)-3-fluorophenyl) cyclopropanesulfonamide]
inhibition at 10 µM [1, 25]: 0% | inhibition at 10 µM ([1]; read-out: inhibition (10 μM)): -34.7% | inhibition at 10 µM [2, 25]: 0% | inhibition at 10 µM ([2]; read-out: inhibition (10 μM)): -15.2% | inhibition at 10 µM [3, 25]: 0% | inhibition at 10 µM ([3]; read-out: inhibition (10 μM)): 5.4% | inhibition at 10 µM [4, 25]: 0% | inhibition at 10 µM ([4]; read-out: inhibition (10 μM)): 9.9% | inhibition at 10 µM [5, 25]: 75 to 90% | inhibition at 10 µM ([5]; read-out: inhibition (10 μM)): 84.7% | inhibition at 10 µM [6, 25]: 35 to 40% | inhibition at 10 µM ([6]; read-out: inhibition (10 μM)): 35.8% | inhibition at 10 µM [7]: 0% | % inhibition [8]: 0.0% | inhibition (10 μM) [8]: −65.2% | inhibition at 10 µM [9, 25]: 0% | inhibition at 10 µM ([9]; read-out: inhibition (10 μM)): -23.9% | inhibition at 10 µM [10, 25]: 0% | inhibition at 10 µM ([10]; read-out: inhibition (10 μM)): -20.6% | inhibition at 10 µM [11, 25]: 0% | inhibition at 10 µM ([11]; read-out: inhibition (10 μM)): -15% | inhibition at 10 µM [12, 25]: 0% | inhibition at 10 µM ([12]; read-out: inhibition (10 μM)): 24.2% | inhibition at 10 µM [13, 25]: 0% | inhibition at 10 µM ([13]; read-out: inhibition (10 μM)): 31.8% | inhibition at 10 µM [14, 25]: 0% | inhibition at 10 µM ([14]; read-out: inhibition (10 μM)): 6.9% | inhibition at 10 µM [15, 25]: 0% | inhibition at 10 µM ([15]; read-out: inhibition (10 μM)): -72.1% | inhibition at 10 µM [16, 25]: 75 to 90% | inhibition at 10 µM ([16]; read-out: inhibition (10 μM)): 84.1% | % inhibition [17]: 0.0% | inhibition (10 μM) [17]: −20.5% | % inhibition [18]: 0.0% | inhibition (10 μM) [18]: −5.2% | inhibition at 10 µM [19, 25]: > 90% | inhibition at 10 µM ([19]; read-out: inhibition (10 μM)): 96.9% | inhibition at 10 µM [20, 25]: 0% | inhibition at 10 µM ([20]; read-out: inhibition (10 μM)): 0.9% | inhibition at 10 µM [21, 25]: 0% | inhibition at 10 µM ([21]; read-out: inhibition (10 μM)): 13.4% | inhibition at 10 µM [22, 25]: 50 to 75% | inhibition at 10 µM ([22]; read-out: inhibition (10 μM)): 55.8% | % inhibition [23]: 0.0% | inhibition (10 μM) [23]: 0.1% | inhibition at 10 µM [24, 25]: 50 to 75% | inhibition at 10 µM ([24]; read-out: inhibition (10 μM)): 73.2%

Nc1ncc(-c2ccc(NS(=O)(=O)C3CC3)cc2OC2CCCCC2)cc1-c1ccc2c(c1)CCNC2=O [Compound I-65, N-(4-(6-amino-5-(1-oxo-1,2,3,4-tetrahydroisoquinolin-6-yl)pyridin-3-yl)-3-(cyclohexyloxy)phenyl) cyclopropanesulfonamide]
inhibition at 10 µM [1, 25]: 0% | inhibition at 10 µM ([1]; read-out: inhibition (10 μM)): -65.1% | inhibition at 10 µM [2, 25]: 0% | inhibition at 10 µM ([2]; read-out: inhibition (10 μM)): 1.6% | inhibition at 10 µM [3, 25]: 50 to 75% | inhibition at 10 µM ([3]; read-out: inhibition (10 μM)): 59.9% | inhibition at 10 µM [4, 25]: 0% | inhibition at 10 µM ([4]; read-out: inhibition (10 μM)): 7.2% | inhibition at 10 µM [5, 25]: > 90% | inhibition at 10 µM ([5]; read-out: inhibition (10 μM)): 91.7% | inhibition at 10 µM [6, 25]: 50 to 75% | inhibition at 10 µM ([6]; read-out: inhibition (10 μM)): 74.6% | inhibition at 10 µM [7]: 0% | % inhibition [8]: 0.0% | inhibition (10 μM) [8]: −52.2% | inhibition at 10 µM [9, 25]: 0% | inhibition at 10 µM ([9]; read-out: inhibition (10 μM)): -8.4% | inhibition at 10 µM [10, 25]: 0% | inhibition at 10 µM ([10]; read-out: inhibition (10 μM)): -10.1% | inhibition at 10 µM [11, 25]: 0% | inhibition at 10 µM ([11]; read-out: inhibition (10 μM)): -15.9% | inhibition at 10 µM [12, 25]: 0% | inhibition at 10 µM ([12]; read-out: inhibition (10 μM)): 10.3% | inhibition at 10 µM [13, 25]: 0% | inhibition at 10 µM ([13]; read-out: inhibition (10 μM)): -29.6% | inhibition at 10 µM [14, 25]: 0% | inhibition at 10 µM ([14]; read-out: inhibition (10 μM)): 0.1% | inhibition at 10 µM ([15]; read-out: inhibition (10 μM)): 35.9% | inhibition at 10 µM [16, 25]: 50 to 75% | inhibition at 10 µM ([16]; read-out: inhibition (10 μM)): 74.5% | % inhibition [17]: 35-40% | inhibition (10 μM) [17]: 39.0% | % inhibition [18]: 0.0% | inhibition (10 μM) [18]: −5.7% | inhibition at 10 µM [19, 25]: > 90% | inhibition at 10 µM ([19]; read-out: inhibition (10 μM)): 98.7% | inhibition at 10 µM [20, 25]: 0% | inhibition at 10 µM ([20]; read-out: inhibition (10 μM)): -6.1% | inhibition at 10 µM [21, 25]: 50 to 75% | inhibition at 10 µM ([21]; read-out: inhibition (10 μM)): 52.1% | inhibition at 10 µM [22, 25]: 50 to 75% | inhibition at 10 µM ([22]; read-out: inhibition (10 μM)): 68.8% | % inhibition [23]: 0.0% | inhibition (10 μM) [23]: −2.9% | inhibition at 10 µM [24, 25]: 0% | inhibition at 10 µM ([24]; read-out: inhibition (10 μM)): -33.4%
